Test results from a melting point compilation (Tetko et al.).
Peptide text beside a SMILES is read from it.

Structure (SMILES) | melting point
c1ccc(Nc2ccccn2)nc1 | 90.5 °C
CC1(C)C2CC3C(c4ccccc4)(C2=C(c2ccccc2)c2ccccc2)C31C (stereo unspecified) | 164 °C
COc1ccc(C(N)=O)cc1OC | 164 °C
O=C1Nc2ccc(Br)cc2C1=O | 251 to 253 °C
CCCCNCCO | -2 °C
COc1ccc(-n2nc(C(=O)c3cccs3)sc2=N)cc1 | 164 °C
CC1(C)OC(=O)C(=Cc2cccc([N+](=O)[O-])c2)C(=O)O1 | 322 °C
CC1=CC1 | -100 °C
Cc1ccccc1OC(=O)Oc1ccccc1C | 60 °C
N#CC(=CN1CCOCC1)C(N)=O | 173 to 177 °C
CCc1cc(C(N)=S)ccn1 | 164 °C
COc1ccc(-c2cc(NN=c3c(C(F)(F)F)nc4ccccc4[nH]c3=O)[nH]n2)cc1 | 154 °C
O=C(Nc1ccc(Cl)cc1)Nc1ccc(Cl)c(C(F)(F)F)c1 | 214 °C
Cc1c(C)c(CCl)c(C)c(C)c1CCl | 194 °C
O=C(Nc1ccccc1)c1cccc(S(=O)(=O)Nc2ccccc2)c1 | 212 to 215 °C
O=P1(NCCCl)OCCCN1CCCl (stereo unspecified) | 43.4 °C
COc1cc([C@@H](O)[C@H](CO)Oc2c(OC)cccc2OC)cc(OC)c1OC | 105 °C
COc1ccc(C(=O)O)cc1[N+](=O)[O-] | 191 to 194 °C
O=C(O)c1ccc2c(c1)CCCN2 | 168 to 170 °C
CC12CCC(CC1=NO)C2(C)C (stereo unspecified) | 118 °C
O=C(Cl)c1scc2c1OCCO2 | 75 to 76 °C
COc1ccc(Br)c(OC)c1C(=O)O | 146 to 148 °C

Structure (SMILES) | melting point
COc1cccc2cc(C(=NO)c3cc4cccc(OC)c4o3)oc12 | 214 to 215 °C
CC/C(=N\O)C1CC2(C)CCC1C2(C)C (stereo unspecified) | 92.5 °C
C=C(C)n1c(=O)[nH]c2ccccc21 | 120 to 124 °C
CCOC(=O)c1c(-c2ccco2)csc1N | 86 to 89 °C
COc1cc(C(=O)c2cccc(Br)c2)c([N+](=O)[O-])cc1OC | 119 °C
C#CC(C)(C)Cl | -61 °C
CCNC(N)=O | 92.5 °C
O=c1ccn(C2CC(F)C(CO)O2)c(=O)[nH]1 (stereo unspecified) | 186 °C
CC12CCC(C(O)=C(Br)C1=O)C2(C)C (stereo unspecified) | 188 °C
CCCCCCCCC(=O)OCC | -36.7 °C
O=[N+]([O-])c1cnc2ccccc2c1O | > 345 °C
C=CC(=O)OCCN(C)C | -60 °C
Cc1nn(C)c(OCC(=O)c2ccccc2)c1C(=O)c1ccc(Cl)cc1Cl | 112 °C
CCOCOC(=O)c1ccccc1Nc1c(Cl)ccc(C)c1Cl | 73.5 °C
S=C=Nc1cccc2nsnc12 | 88 to 89 °C
COc1ccc(C(C)=O)c(F)c1 | 52 °C
O=C(O)CCCCCC1NC(=O)CS1 (stereo unspecified) | 140 °C
Clc1cc2c(oc3c(Cl)cccc32)c(Cl)c1Cl | 190 °C
OCCN(CCO)c1ccc(N=Nc2ccccc2)cc1 | 134 °C
OCc1cc(C(F)(F)F)ccc1N1CCOCC1 | 83 to 84 °C
CCn1cc(C(=O)O)c(=O)c2cnc(N3CCNCC3)nc21 | 254 °C
CC(CO)c1ccccc1 (stereo unspecified) | -13 °C

Structure (SMILES) | melting point
N#CCCNC1CCCCC1 | 122 to 124 °C
c1csc(P(c2cccs2)c2cccs2)c1 | 29 to 30 °C
CC1(N)CCC(C(C)(C)N)CC1 (stereo unspecified) | -45 °C
CC1(C)OC(=O)C(=Cc2ccc(-c3ccc([N+](=O)[O-])cc3)o2)C(=O)O1 | 221 °C
Cc1ccccc1C1Cc2ccccc2C(O)O1 (stereo unspecified) | 100 to 109 °C
CC(C)COC(N)=O | 67 °C
CC(C)(CO)C(=O)O | 124 °C
CSc1ccc2ccccc2c1 | 63 °C
COc1ccc(C(C(=O)NCc2ccccc2)N(Cc2ccc(C)o2)C(=O)CNC(=O)OC(C)(C)C)cc1OC (stereo unspecified) | 177 °C
CC1(C)OC[C@H](CC(N)=O)O1 | 108 to 109 °C
O=C(Cl)C1COc2ccccc2O1 (stereo unspecified) | 56 to 57 °C
Cc1c(NC(=O)C(C(F)(F)F)C(F)(F)F)c(=O)n(-c2ccccc2)n1C | 237 to 239 °C
C[Si](C)(Cl)CC[Si](C)(C)Cl | 37 °C
FC(F)(F)c1nnc2sc(=S)[nH]n12 | 160 °C
NC1C2CCC(C2)C1C(=O)O (stereo unspecified) | 275 to 278 °C
O=[N+]([O-])c1ccccc1OCCCBr | 37 to 38 °C
Fc1cccc(Br)n1 | 32 °C
CC(C)[C@H](NC(=O)CN)C(=O)O (H-Gly-Val-OH) | 248 °C
NNc1cccc2ccccc12 | 117 °C
Cn1c(=O)c(C2=NNC(=O)C2=CNc2nccs2)c(O)c2ccccc21 | 248 °C
Cc1cc2c(o1)-c1c(oc3ccccc13)CCC2(C)c1ccccc1 (stereo unspecified) | 135 °C
O=Cc1c([N+](=O)[O-])cccc1[N+](=O)[O-] | 119 °C

Structure (SMILES) | melting point
Nc1cc(F)ccc1Br | 44 °C
ON=Cc1cc(Br)c(O)c(Br)c1 | 198 to 201 °C
CC(C)(C)c1cc(C(=O)O)n(Cc2ccccc2)n1 | 126 °C
C[Si](C)(Oc1ccccc1)Oc1ccccc1 | -23 °C
CCOc1ccc2[nH]c(S)nc2c1 | 249 °C
COc1nsnc1NS(=O)(=O)c1ccc(N)cc1 | 150 °C
N=C(Nc1ccccc1)c1ccccc1 | 119 °C
O=C1CN=C(c2ccccc2F)c2cc(Cl)ccc2N1CC1CC1 | 118 °C
O=C(O)Cc1ccc(I)cc1 | 138 °C
O=C(Nc1cc(Cl)cc(Cl)c1O)c1c(O)c(Cl)cc(Cl)c1Cl | 210 °C
CCOC(=O)N1CCC2(CC1)C(=O)N(CO)CN2c1ccccc1 | 134 to 139 °C
C#CC(O)CCC (stereo unspecified) | -80 °C
Oc1ccc2ccc3cccc4ccc1c2c34 | 180 °C
C1CCC(N2CCNCC2)CC1 | 28 to 32 °C
Cc1nc(-c2ccccc2)sc1Br | 60 °C
CC(=O)C(=O)Nc1ccc(Br)cc1 | 166 °C
CCC(=O)Oc1ccc(C(CC)=C(CC)c2ccc(OC(=O)CC)cc2)cc1 | 104 °C
CN1C(C(=O)Nc2ccccn2)=C(O)c2ccccc2S1(=O)=O | 198 °C
O=Nc1c(O)ccc2ccccc12 | 110 °C
O=C(O)c1cc(F)cc2c1OCOC2 | 180 to 182 °C
NC(=O)NN=CC[N+](=O)[O-] | 360 °C
O=C(C=Cc1ccccc1)c1cccs1 | 76 to 78 °C

Structure (SMILES) | melting point
Cc1c(C)c(CBr)c(CBr)c(CBr)c1CBr | 205 °C
N#Cc1cc(F)ccc1[N+](=O)[O-] | 103 °C
CC(C)(C)S(=O)(=O)c1cnc(-c2ccccn2)nc1N | 266 to 268 °C
Cc1cccc(NC=C2C(=O)NN=C2c2c(O)c3ccccc3n(C)c2=O)c1 | 264 °C
CC(=O)/C(=C\N)c1ccccc1 | 97 °C
CCCCCCCCN(C)C | -57 °C
CC(C)(C)N(NC(=O)c1ccccc1)C(=O)c1cc(Cl)ccc1Cl | 214 °C
CCCC(C)C1(CC)C(=O)NC(=S)NC1=O (stereo unspecified) | 130 °C
COc1cc(CC(=O)O)cc(OC)c1OC | 120 °C
CC(C)(C(=O)O)c1ccc(Cl)cc1 | 127 °C
O=C(c1ccccc1)C(F)(F)F | -40 °C
CCCOC(=O)C1=C(C)NC(C)=C(C(=O)OCCC)C1c1ccco1 | 112 °C
O=C1NN=C(C(F)(F)F)C1=NNc1cccc([N+](=O)[O-])c1 | 254 °C
O=C(O)c1cccc(F)c1C(=O)O | 171 to 175 °C
Cc1ccc(C(=O)CBr)c(C)c1 | 44 °C
N#Cc1cc(Cl)nc(Cl)c1 | 96 to 97 °C
Nc1cc(Br)ccc1Cl | 48 to 49 °C
Nc1n[nH]c(-c2ccccc2)c1Br | 118 to 120 °C
Cc1ccc(C)n1-c1ccccc1C(=O)O | 125 °C
Nc1cc(C(F)(F)F)ccc1N1CCCC1 | 33 to 35 °C
COc1cc(Cl)c(NC(C)=O)c(Cl)c1 | 186 to 188 °C
O=[N+]([O-])c1cc([N+](=O)[O-])c(Nc2ccc3c(c2)OCCOCCOCCOCCO3)c(C(F)(F)F)c1 | 171 °C

Structure (SMILES) | melting point
Cc1cc(=O)oc2cc(O)c(O)cc12 | 275 °C
C[C@@H]1N[C@H](C(=O)O)CC2c3ccccc3NC21 (stereo partly specified) | 286 °C
Oc1ccccc1N=CC=Nc1ccccc1O | 201 to 205 °C
CSc1nnc(N)s1 | 176 to 180 °C
CC12CCC(C(O)C(C(c3ccccc3)C3C(=O)C4(C)CCC(C3O)C4(C)C)C1=O)C2(C)C (stereo unspecified) | 149 °C
Cn1cnc(C#N)c1C#N | 85 °C
CC1C(=O)C23C(O)CC4C(C)(CO)CCCC4(CO)C2C(O)CC1C3O (stereo unspecified) | 266 °C
CC(C)(C)c1nc2ccccc2[nH]1 | 320 °C
c1ccc2c3c([nH]c2c1)CCCCCC3 | 74 °C
CCC(O)(COC(N)=O)c1ccccc1 (stereo unspecified) | 55 °C
O=[N+]([O-])c1cccc2c(/C=N\c3ccccc3)cccc12 | 83 to 84 °C
CC(C)(C)OC(=O)N1CCN(c2ccc(C=O)cc2)CC1 | 118 to 119 °C
O=C(O)c1ccc(C(=O)O)c(Br)c1 | 295 to 297 °C
O=C(CNC(=O)OCC1c2ccccc2-c2ccccc21)Oc1c(F)c(F)c(F)c(F)c1F | 159 to 160 °C
O=S(=O)(Cl)c1cc(Cl)ccc1F | 43 °C
CC12CCCCC1(C)C1CCC3(C)C(O)CCC3(C)C1CC2 (stereo unspecified) | 167 °C
O=C(Cl)c1ccc(-c2ccccn2)s1 | 140 to 141 °C
CCOC(=O)C(C#N)c1cc(Cl)c([N+](=O)[O-])cc1[N+](=O)[O-] (stereo unspecified) | 109 °C
c1ccc2c(c1)CCc1ccccc1N2C1CN2CCC1CC2 (stereo unspecified) | 150 °C
CC(C)OC(=O)NC(C(=O)NC(C)c1nc2ccc(F)cc2s1)C(C)C (stereo unspecified) | 153 °C
Cc1ccccc1CP(=O)(O)O | 195 to 196 °C
